Data as given in a melting point compilation (Tetko et al.; mined from patent text by program, amines drawn as free bases though some values may be those of a salt).

SMILES	melting point
Cc1cc(C)c2c(c1O)C(NCc1cc(C(C)(C)C)c(O)c(C(C)(C)C)c1)CC2 (stereo not drawn)	154 to 155 °C
CCCc1cc2ccccn2c1C(C)=O	71 to 72 °C
Cc1c(C)c(N2CCN(c3ccc(C(C)C)cc3)CC2)c(C)c2c1OC(C)(CO)C2 (stereo not drawn)	160 to 163 °C
CN(c1cccc2cc(C3=NCC(CC(=O)O)S3)[nH]c12)S(=O)(=O)c1cccs1 (stereo not drawn)	232 to 234 °C
O=S1(=O)NC(c2cccc(F)c2)c2ccccc21 (single isomer, unassigned; (+))	148 °C
COC(=O)Cc1ccccc1OCc1cc(OCCc2nc(-c3ccccc3)sc2C)no1	80 to 81 °C
O=C(C=Cc1ccc(O)c(OC(F)(F)F)c1)C(CCOCCO)C(=O)C=Cc1ccc(O)c(OC(F)(F)F)c1 (stereo not drawn)	112 to 114 °C
Cc1cccc(-c2nnc(-c3ccccc3Cc3ccccc3)nn2)c1	90 to 91 °C
Cc1cc(C)c2c(c1)C=C(/C=C/C=C/C=C/C(=O)O)C(C)(C)O2	200 to 202 °C
CCCCCCc1ccc(NC2=NCCS2)cc1	77 to 79 °C
O=C(Nc1ccc2ccc(Cl)nc2n1)C1=CSCCS1	237 °C
Cc1ccc(-c2ccc(OC3SCC(O)C(O)C3O)cn2)o1 (stereo not drawn)	168 °C
Cc1ccc(S(=O)(=O)N(C)c2ccc([N+](=O)[O-])cc2C)cc1	103 to 104 °C
CCN(CC)C(=O)c1cc(-c2ccc(OC)cc2)c2ccccc2c1	147 to 149 °C
O=C(O)C1=Cc2cc(Cl)c(Oc3ccc(Cl)cc3Cl)cc2OC1C(F)(F)F (stereo not drawn)	233 to 234 °C
CC(N)Cc1ccc(C(N)=O)s1 (racemic)	91 to 92 °C
Cc1c(NC(=O)c2ccc(-c3ccccc3F)c(F)c2)ccc2cc(CN3CCCC3)cnc12	139 to 140 °C
CN1C(=N)c2c(Cl)cccc2S1(=O)=O	92.5 to 95 °C
CC(C)NC(=O)c1cc(-n2c(=O)cc(C(F)(F)F)[nH]c2=O)c(F)cc1Cl	234 to 239 °C
CN(C)Cc1nnc2n1-c1ccc(Cl)cc1C(c1ccc(Cl)cc1)=[N+]([O-])C2	260 °C
CCCC(CCNC(=O)C(C#N)=Cc1cc(O)c(O)c(OC)c1)NC(=O)C(C#N)=Cc1cc(O)c(O)c(OC)c1 (stereo not drawn)	243 °C
O=C1CC(c2cccc(-n3ccnc3)c2)=Nc2cc(OCCO)c(C#Cc3ccccc3)cc2N1	224 to 227 °C
O=C(Nc1nc(-c2ccco2)c(C(=O)C2CCOCC2)s1)c1ccc(F)cc1	131 to 132 °C
CCOC(=O)c1cnc(-c2ccc(Cl)cc2)nc1-c1ccc(OC)c(OC)c1	115 °C
CC(C)c1noc(-c2ccccc2)c1-c1ccc(S(N)(=O)=O)cc1	205 °C
NS(=O)(=O)c1cccc2c1CC(=O)CC2	173 to 175 °C

SMILES	melting point
CSc1ccc(-n2cnc3ccc(-c4nnc(CCc5cccc(C#N)c5)o4)cc32)cc1	185 to 186 °C
CCOC(=O)c1ncn(-c2nccs2)c1S	155 to 158 °C
CC(=O)OCC1OC(n2cnc3c(N)ncnc32)CC1O (stereo not drawn)	150 to 152 °C
Cc1ccc(N2C(=O)C(O)=C(C(=O)c3ccc(C(C)C)cc3)C2c2ccc(Cl)cc2)nn1 (stereo not drawn)	258 to 260 °C
CC(=O)N1CCC(C(=NO)c2ccc(Cl)cc2Cl)CC1	167 to 168 °C
CC(C)CN(CCCc1ccc(F)cc1)[C@H]1CC[C@H](c2ccc3[nH]c(=O)oc3c2)CC1	199 to 201 °C
COc1ccccc1Sc1c(Cl)ncnc1Cl	103 °C
CC(=O)NCCC1CCc2ccc3nc(-c4ccccc4)oc3c21 (stereo not drawn)	124 to 126 °C
CCCc1nc2c(N)nc3cc(OCc4ccc(C(F)(F)F)cc4)ccc3c2n1CC(C)C	192 to 194 °C
COc1cc2c(-c3ccnc(Cl)c3)c(CO)c(CO)cc2cc1OC1CCCC1	200 to 201 °C
CC(Cl)(Cl)C(NC(=O)c1cccnc1)NC(=NC#N)Nc1ccc(Cl)nc1 (stereo not drawn)	212 to 213 °C
O=C(O)CC1(C(=O)O)CCSc2ccccc21 (stereo not drawn)	168 to 170 °C
COc1ccc(NN=C(C)C)cc1	163 to 164 °C
Cc1cc(C)c(-n2ccc3c(Cl)nnc(Cl)c32)c(C)c1	169 to 170 °C
CCc1cc(=O)c(C(=O)c2ccccc2)c(C)[nH]1	169 to 170 °C
Cc1ccc(NC(=O)Nc2ccc(-c3c(Cc4ccccc4)sc4ncnc(N)c34)cc2)cc1	169 to 173 °C
O=C(O)C(Sc1ccc(Cl)cc1)c1ccc(Oc2ccccc2)cc1 (stereo not drawn)	121 to 125 °C
CCSC1OC(CO)C(OC2OC(CO)C(O)C(O)C2O)C(O)C1O (stereo not drawn)	191 to 192 °C
O=C(O)CC1=C(Cc2ccc3ccccc3c2)C(=O)CCC1	78 to 80 °C
Nc1sc2c(c1C(=O)c1ccc3c(c1)Cc1ccccc1-3)CCCC2	146 to 149 °C
CCOC(=O)NN=C(c1ccccc1)c1ccncc1	189 °C
O=C1CC(=O)CC(CC2CCOCC2)C1	129 to 130 °C
O=S1(=O)NCNc2c(Cl)cc(Cl)cc21	149 to 151 °C
CC(=O)OC1CCC2(C)C(=CCC3C2CC(c2cccnc2)C2(C)C=CCC32)C1 (stereo not drawn)	144 to 145 °C
CC(=O)O[C@H]1C[C@@H](n2cnc3c(Cl)ncnc32)[C@H](O)[C@@H]1O (racemic)	103 to 104 °C
CCOC(=O)N(c1ccc(Cl)cc1)c1ccccc1N	112 to 115 °C

SMILES	melting point
CCOC(=O)c1cnc2sc(C)cc2c1O	118 to 120 °C
CN1C[C@H](CN2CCN(C(c3ccccc3)c3ccccc3)CC2)C=C2c3cccc4[nH]cc(c34)C[C@H]21	> 200 °C
CCn1nc(C)sc1=Nc1ccc(N2CCN(c3ccc(OC)cc3)CC2)cc1	175 °C
Cn1nc(S(C)(=O)=O)c(=O)c2ccccc21	202 to 204 °C
C#CC1CCC2(CC1)SCC(C(C)(C)C)CS2 (stereo not drawn)	86 to 87 °C
CCCC(C)n1c(=O)nc(-n2cccn2)[nH]c1=O (stereo not drawn)	99 to 100 °C
c1ccc2cc(NC3=NCC4(CN5CCC4CC5)O3)ncc2c1 (stereo not drawn)	196 to 200 °C
CC(C)(C)C(O)(COC1CCCCO1)Cn1ccnc1 (stereo not drawn)	107 °C
Clc1[nH]c2ccccc2c1Sc1ccccc1	98 to 99 °C
CCCCOc1cc(/C=C(\OCC)C(=O)O)ccc1OCCc1ccc(OS(=O)(=O)CCCC)c(OC)c1	94 °C
CNC(=O)c1cc(SC)cc(N)n1	89 to 91 °C
CC(=O)NC[C@H]1CN(c2ccc(C(=O)c3cc(C#N)c4ccccn34)cc2)C(=O)O1	255 to 257 °C
Nc1c(Cl)nc2ccccc2c1NCc1ccccn1	98 to 102 °C
CCc1[nH]cc2c1-c1ccc(Cl)cc1C(c1ccccc1Cl)=NC2	251 to 253 °C
Nc1cc2cccnc2c(Cc2ccccc2)n1	113 to 116 °C
COc1ccccc1N1CCN(CCCNC(=O)c2cccc3c(=O)c(C)c(-c4cccc([N+](=O)[O-])c4)oc23)CC1	135 to 137 °C
CC1(C)CC(N2CCCC2)c2sccc2O1 (stereo not drawn)	49 to 50 °C
CCCc1nc2cc(CC(=O)O)ccc2o1	67 to 68 °C
CN(Cc1cc2c(-c3ccccc3)c(CC(=O)Nc3ccc(Cl)cc3C(F)(F)F)c(=O)oc2cc1Cl)C(=O)c1ccccc1	215 to 216 °C
CC(=O)N(OC(=O)NC(C)(C)C)C(=O)NC(C)(C)C	111 to 113 °C
CC(=O)OC[C@H]1NC(=O)[C@@H](Cc2cn(C)c3ccccc23)NC1=O	250 to 252 °C
Cn1c(=O)c(-c2ccc(Cl)cc2Cl)cc2c3cc(C=NO)ccc3n(C)c21	287 to 290 °C
COc1cc(C#N)ccc1-c1cc(-c2ccc(C#N)cc2)on1	243 to 244 °C
CNC(=S)N(O)C(C)c1cc(C(C)(C)C)c(O)c(C(C)(C)C)c1 (stereo not drawn)	175 to 176 °C
O=C(CCCCl)Nc1nnc(-c2ccccc2)s1	159 to 162 °C
CCCc1cccnc1N	25 to 27 °C

SMILES	melting point
CC(C)(C)C(F)(F)c1ccc(C[C@H]2NC(=O)O[C@H]2c2cccc(Cl)c2)cc1 (racemic)	188 to 190 °C
CC1=C(c2ccc(Cl)cc2)n2ncc(C(N)=O)c2NC1	210 to 212 °C
N#Cc1ccc(-c2ccc(OCCCCBr)cc2)cc1	62.5 to 64 °C
CCCCC1=C(C)C=NC1=O	95 to 97 °C
CCCCC(C(=O)OC)c1cccc(C(=O)c2cc3cc(C(=O)OC)sc3s2)c1 (stereo not drawn)	95 °C
Cc1ncn(-c2ccc(C(=O)N3Cc4cccn4Cc4ccccc43)c(Cl)c2)n1	191 to 193 °C
COc1cc2c(cc1OC)CC(=O)N(CCCCl)C=C2	84 to 85 °C
Cc1cc(C)nc(OC(C)C(=O)NS(=O)(=O)c2ccccc2)n1 (stereo not drawn)	188 °C
CCCn1nc(-c2ccc(O)cc2)c2cccc(-c3ccccc3)c21	171 to 172 °C
CCCCOc1cc(/C=C(\OCC)C(=O)O)ccc1OCCc1ccc(OS(C)(=O)=O)cc1OC	112 °C
Cc1cc(Oc2c(Cl)cc(C(F)(F)F)cc2Cl)nn1C(N)=O	152 to 154 °C
COc1ccc2ccc(NC(=O)c3cccc(OC(C)=O)c3)nc2n1	172 °C
O=C1c2ccccc2C(=O)N1c1ccc(Cl)cn1	153 to 155 °C
Cc1cc(N2CCN(c3ccc(C(F)(F)F)cn3)CC2)cc(C)c1O	143 to 144 °C
CCCC(Oc1ccccc1Br)C(=O)O (stereo not drawn)	63 °C
CC(=O)N1CCC(CCC(=O)c2ccc3c(c2)CCN3c2ccncc2)CC1	157 to 158 °C
CC1(C)Oc2ccc(S(=O)(=O)c3ccc(O)cc3)cc2[C@@H](Oc2ccc(O)nn2)[C@]1(C)O	> 200 °C
CCCCOC(C(=O)Oc1ccc(C(=O)O)cc1)c1ccc2c(c1)C(C)(C)CCC2(C)C (racemic)	129 to 130 °C
O=S1NC(Cc2coc3ccc(Cl)cc23)=NO1 (stereo not drawn)	140 °C
Cc1cccc2c1nc(COc1ccc(Cl)cc1)n2CCC(C)C(=O)Cl (stereo not drawn)	140 to 142 °C
COC1=C(OC)C(=O)C(CCCCC[C@H]2CC[C@H](OC(C)=O)CC2)=C(C)C1=O	33 to 34 °C
N#CCCOc1ccc2c(c1)CCO2	< 50 °C
CC(=O)NC(CO)C(=O)c1ccccc1 (stereo not drawn)	115 to 117 °C
NS(=O)(=O)c1cccc(C(O)CO)c1 (stereo not drawn)	170 to 171 °C
Cc1cc(C)cc(NC(=O)c2cc(Br)ccc2O)c1	188 to 190 °C
